Here are results for four molecules from patent publication US20070167512A1, “Lipid metabolism improving agent” (Kyowa Hakko Kogyo Co., Ltd., priority 2003, published 2007).

For assay [1], the system named is KK-Ay/Ta Jcl mice (animal models for hypertriglyceridemia and hyper-free fatty acidemia). Briefly: Serum triglyceride concentration in KK-Ay/Ta Jcl mice fed compound-supplemented CE-2 feed (Triglyceride G-Test Wako). The assay is classed as in vivo. The conditions noted are these: for Triglyceride (serum concentration): KK-Ay/Ta Jcl male mice, 1% by weight in CE-2 feed ad libitum, serum after 18 h fast, 10th-11th day, mean ± standard error (n=5), Group 1 (CE-2 only) 282.4 ± 30.3; for Action for improving hypertriglyceridemia (conclusion) / Serum triglyceride concentration as compared with Group 1 (in words): KK-Ay/Ta Jcl mice, 1% by weight in feed; for Serum triglyceride concentration as compared with Group 1 (in words): t-test, p < 0.01 where significant. The text has this:
(§1) KK-Ay/Ta Jcl mice (CLEA JAPAN; males; six weeks age) (25 mice) which are animal models for appearing hypertriglyceridemia and hyper-free fatty acidemia were divided into five groups each comprising five mice and named group 1 to group 5.
(§2) The mice of group 1 to group 5 were made free to take feed and water. A commercially available feed CE-2 (manufactured by CLEA JAPAN) was ingested to the mice of group 1. CE-2 to which 1% by weight of trans-4-hydroxy-L-proline (manufactured by Kyowa Hakko Kogyo; hereinafter, abbreviated as hydroxyproline) was added was ingested to the mice of group 2. CE-2 to which 1% by weight of trans-N-acetyl-4-hydroxy-L-proline (manufactured by Kyowa Hakko Kogyo; hereinafter, abbreviated as N-acetylhydroxyproline) was added was ingested to the mice of group 3. CE-2 to which 1% by weight of trans-4-hydroxy-L-proline ethyl ester (manufactured by Sanyo Kagaku Kenkyusho; hereinafter, abbreviated as hydroxyproline ethyl ester) was added was ingested to the mice of group 4. CE-2 to which 1% by weight of trans-N,O-diacetyl-4-hydroxy-L-proline oleyl ester (manufactured by Nissei Kagaku; hereinafter, abbreviated as diacetylhydroxyproline oleyl ester) was added was ingested to the mice of group 5.
(§3) The mice were fasted for 18 hours during the 10th day to the 11th day after the start of the test and whole blood was collected from descending vena carva to prepare serum. Concentration of triglyceride in the serum was measured by a Triglyceride G-Test Wako (manufactured by Wako Pure Chemical) and concentration of free fatty acids therein was measured by an NEFA C-Test Wak (manufactured by Wako Pure Chemical). The value was shown by mean value ± standard error (n=5) and statistic ratio of risk (p value) was determined by a t-test. With regard to the ingested amounts during the test period, there was no significant difference among the groups 1 to 5.

Assay [2] shares this test system. Nature of the assay: Serum free fatty acid concentration in KK-Ay/Ta Jcl mice fed compound-supplemented CE-2 feed (NEFA C-Test). The conditions noted are these: for Free Fatty Acid (serum concentration): KK-Ay/Ta Jcl male mice, 1% by weight in CE-2 feed ad libitum, serum after 18 h fast, 10th-11th day, mean ± standard error (n=5), Group 1 (CE-2 only) 1.12 ± 0.05; for Action for improving hyper-free fatty acidemia (conclusion) / Free fatty acid concentration in serum as compared with Group 1 (in words): KK-Ay/Ta Jcl mice, 1% by weight in feed; for Free fatty acid concentration in serum as compared with Group 1 (in words): t-test, p < 0.005 where significant. The assay is classed as in vivo.
From the text: as §1, §2, §3

As to `CCCCCCCC/C=C\CCCCCCCCOC(=O)[C@@H]1C[C@@H](OC(C)=O)CN1C(C)=O` (relative stereo) [diacetylhydroxyproline oleyl ester, trans-N,O-diacetyl-4-hydroxy-L-proline oleyl ester], in assay [1], the “Triglyceride (serum concentration)” value was 217.6 ± 18.3 mg/dL, the “Action for improving hypertriglyceridemia (conclusion)” value was “action for improving hypertriglyceridemia” and the “Serum triglyceride concentration as compared with Group 1 (in words)” value is recorded as “tended to show low values”. Further, in assay [2], the “Free Fatty Acid (serum concentration)” value was found to be 1.00 ± 0.07 mEq/l, the “Action for improving hyper-free fatty acidemia (conclusion)” value is “action for improving hyper-free fatty acidemia” and the “Free fatty acid concentration in serum as compared with Group 1 (in words)” value is “tended to show low values”.

For `CCOC(=O)[C@@H]1C[C@@H](O)CN1` [hydroxyproline ethyl ester, trans-4-hydroxy-L-proline ethyl ester], in assay [1], the “Triglyceride (serum concentration)” value came out at 168.7 ± 13.4 mg/dL, the “Action for improving hypertriglyceridemia (conclusion)” value was “action for improving hypertriglyceridemia” and the “Serum triglyceride concentration as compared with Group 1 (in words)” value is listed as “significantly low”. Also, in assay [2], the “Free Fatty Acid (serum concentration)” value came to 0.68 ± 0.02 mEq/l, the “Action for improving hyper-free fatty acidemia (conclusion)” value is reported as “action for improving hyper-free fatty acidemia” and the “Free fatty acid concentration in serum as compared with Group 1 (in words)” value was “significantly low”.

Take `O=C(O)[C@@H]1C[C@@H](O)CN1` [hydroxyproline, trans-4-hydroxy-L-proline]: in assay [1], the “Triglyceride (serum concentration)” value came out at 224.3 ± 23.1 mg/dL, the “Action for improving hypertriglyceridemia (conclusion)” value is reported as “action for improving hypertriglyceridemia” and the “Serum triglyceride concentration as compared with Group 1 (in words)” value is given as “tended to show low values”. Besides, in assay [2], the “Free Fatty Acid (serum concentration)” value is 0.84 ± 0.05 mEq/l, the “Action for improving hyper-free fatty acidemia (conclusion)” value is “action for improving hyper-free fatty acidemia” and the “Free fatty acid concentration in serum as compared with Group 1 (in words)” value was “significantly low”.

In the case of `CC(=O)N1C[C@H](O)C[C@H]1C(=O)O` [N-acetylhydroxyproline, trans-N-acetyl-4-hydroxy-L-proline], in assay [1], the “Triglyceride (serum concentration)” value was 156.4 ± 23.3 mg/dL, the “Action for improving hypertriglyceridemia (conclusion)” value was “action for improving hypertriglyceridemia” and the “Serum triglyceride concentration as compared with Group 1 (in words)” value was “significantly low”. In assay [2], the “Free Fatty Acid (serum concentration)” value was 0.77 ± 0.06 mEq/l, the “Action for improving hyper-free fatty acidemia (conclusion)” value was “action for improving hyper-free fatty acidemia” and the “Free fatty acid concentration in serum as compared with Group 1 (in words)” value is “significantly low”.
